Experimental data taken from publication PMC8912008, “Pharmacokinetic Study of Withanosides and Withanolides from Withania somnifera Using Ultra-High Performance Liquid Chromatography-Tandem Mass Spectrometry (UHPLC-MS/MS)” (Molecules, 2022).

Tests used:
[1] = in vitro; conditions: rat
[2] = Stability of analytes in rat plasma; conditions: n = 6; for Processed sample stability (% ± SD): processed rat plasma sample, 4 h; for Bench top Stability (% ± SD) / Autosampler stability (% ± SD) / Freeze-thaw stability (% ± SD): rat plasma; for Bench top Stability (% ± SD): 25 °C for 4 h; for Freeze-thaw stability (% ± SD): three freeze/thaw cycles
[3] = In vivo pharmacokinetic study after oral WSE
Text: It is known that the hydrophobic interior surface of the cell membrane (lipid bilayer) serves as a barrier to the passage of polar and high molecular weight molecules.
Food pellets and tap water were provided ad libitum throughout the experimentation. The protocol to carry out in vivo pharmacokinetics was approved by The Institutional Animal Ethics Committee (IAEC) of Crystal Biological Solution, Pune, Maharashtra, India. […] Eighteen animals were subdivided into three groups, (n = 6) animals in each group. Withania somnifera extract suspension was prepared in water for oral administration, and the dose was calculated based on the acute oral toxicity study (500 mg/kg; single dose). […] The separated plasma samples were transferred into Eppendorf tubes and stored at −80 °C in a deep freezer until analysis. Ten pharmacokinetic parameters were determined using PK solver 2.0, USA [45, 46, 47]. The maximum observed concentration (Cmax) and maximum observed time (Tmax) were calculated directly from the experimental results. The elimination rate constant (Kel) was calculated from the slope of the linear regression of Log concentrations as a function of time. […] The area under the curve (AUC(0–t)) was calculated from the linear curve following the trapezoidal rule, while AUC(0–∞) was calculated by adding Ct/λ, with Ct being the final measurable concentration. Oral clearance (Cl/F) was obtained from the equation Cl/F = dose/AUC(0–∞). Mean residence time (MRT) was calculated as AUMC(0–∞)/AUC(0–∞), where AUMC(0–∞) is the area under the first moment curve. […] The pharmacokinetic parameters as the average of six rats ± SD. The mean plasma concentration Vs. time curve (mean ± SD) was prepared using Prism 8.2, (GraphPad, San Diego, CA, USA).

[4] = high QC (nominal 200.50-201.50 ng/mL)
[5] = low QC (nominal 10.05-10.50 ng/mL)
[6] = male, Sprague Dawley, rat, in vivo, po, 500 mg/kg

Row | Structure (SMILES) | Papp at 1 h, 2 mg/mL [1] | Processed sample stability (% ± SD) [2, 4] | Processed sample stability (% ± SD) [2, 5] | Bench top Stability (% ± SD) [2, 4] | Bench top Stability (% ± SD) [2, 5] | Autosampler stability (% ± SD) [2, 4] | Autosampler stability (% ± SD) [2, 5] | Freeze-thaw stability (% ± SD) [2, 4] | Freeze-thaw stability (% ± SD) [2, 5] | concentration in plasma ([3]; rat plasma after WSE 500 mg/kg oral, LLOQ 3 ng/mL) | AUC(0-inf) [3, 6] | AUC(0-t) [3, 6] | Cmax [3, 6] | MRT inf [3, 6] | Tmax [3, 6] | half-life [3, 6] | k el [3, 6] | Cl/F (oral clearance) ([3]; rat, in vivo, po, 500 mg/kg) | Vdapp (mean apparent volume of distribution) ([3]; rat, in vivo, po, 500 mg/kg) | oral clearance (Cl/F) ([3]; rat, in vivo, po, 500 mg/kg)
1 | CC1=C(C)C(=O)O[C@@H]([C@@H](C)[C@H]2CC[C@H]3[C@@H]4[C@@H]5O[C@@H]5[C@@]5(O)CC=CC(=O)[C@]5(C)[C@H]4CC[C@]23C)C1 [Withanolide B] | 0.0131 ×10⁻⁶ cm/s | 95.01 ± 5.83% | 113.48 ± 47.73% | 96.83 ± 6.66% | 95.51 ± 5.04% | 97.26 ± 3.36% | 98.84 ± 4.54% | 93.48 ± 6.55% | 116.31 ± 36.76% | – | – | – | – | – | – | – | – | – | – | –
2 | CC1=C(C)C(=O)O[C@@H]([C@@H](C)[C@@]2(O)CC[C@H]3[C@@H]4[C@@H]5O[C@@H]5[C@@]5(O)CC=CC(=O)[C@]5(C)[C@H]4CC[C@@]32C)C1 [Withanone] | 0.0317 ×10⁻⁶ cm/s | 99.56 ± 4.91% | 112.07 ± 37.93% | 98.87 ± 9.47% | 96.31 ± 6.27% | 111.25 ± 4.86% | 109.47 ± 4.01% | 98.14 ± 4.74% | 104.24 ± 7.98% | below LLOQ | – | – | – | – | – | – | – | – | – | –
3 | CC1=C(CO)C(=O)O[C@@H]([C@@H](C)[C@H]2CC[C@H]3[C@@H]4CC=C5C[C@@H](O[C@@H]6O[C@H](CO[C@@H]7O[C@H](CO)[C@@H](O)[C@H](O)[C@H]7O)[C@@H](O)[C@H](O)[C@H]6O)C[C@H](O)[C@]5(C)[C@H]4CC[C@]23C)C1 [Withanoside IV] | 0.142 ×10⁻⁶ cm/s | 101.10 ± 9.54% | 104.41 ± 4.84% | 100.34 ± 10.45% | 104.41 ± 4.84% | 111.61 ± 0.88% | 108.21 ± 2.00% | 98.95 ± 5.47% | 104.78 ± 5.59% | – | 22.9 ± 5.73 ng·h/mL | 14 ± 3.7 ng·h/mL | 13.8 ± 3.73 ng/mL | 2.08 ± 0.394 h | 0.75 h | 1.1 ± 0.272 h | 0.000182 s⁻¹ | 0.176 ± 0.037 | 0.278 ± 0.083 | 0.176 ± 0.037 (mg/kg)/(ng/mL)/h
4 | CC1=C(C)C(=O)O[C@@H]([C@@H](C)[C@H]2CC[C@H]3[C@@H]4CC=C5C[C@@H](O[C@@H]6O[C@H](CO[C@@H]7O[C@H](CO)[C@@H](O)[C@H](O)[C@H]7O)[C@@H](O)[C@H](O)[C@H]6O)C[C@H](O)[C@]5(C)[C@H]4CC[C@]23C)C1 [Withanoside V] | 0.0343 ×10⁻⁶ cm/s | 90.47 ± 6.50% | 134.85 ± 90.10% | 91.74 ± 8.97% | 99.58 ± 8.68% | 111.25 ± 4.54% | 109.83 ± 8.35% | 99.38 ± 6.58% | 105.13 ± 6.95% | – | – | – | – | – | – | – | – | – | – | –
